In ChEMBL document CHEMBL4354789, “Recent advances in the discovery of indoleamine 2,3-dioxygenase 1 (IDO1) inhibitors” (Medchemcomm, 2019):
Blank lines part the entries; values can stand above or below the compound they belong to.

Key:
[1] = system: Plasmodium falciparum; experiment: Antimalarial activity against chloroquine-sensitive Plasmodium falciparum 3D7 infected in erythrocytes assessed as reduction in parasite growth preincubated for 48 hrs followed by addition of [3H]Hypoxanthine and measured after 24 hrs by radiometric method; type: functional, organism-based
[2] = system: Homo sapiens; experiment: In vivo inhibition of IDO1 in human patient assessed as reduction in Serum kynurenine level at 100 to 200 mg, po qd for 2 weeks co-treated with nivo-lumab relative to control; type: functional
[3] = system: Homo sapiens; experiment: In vivo inhibition of IDO1 in human patient assessed as reduction in Serum kynurenine level at 25 to 200 mg, po qd for 2 weeks co-treated with nivo-lumab relative to control; type: functional
[4] = target: T1, Indoleamine 2,3-dioxygenase 1 (Homo sapiens, UniProt P14902); experiment: Inhibition of IDO1 in HEK293 cells assessed as reduction in L-kynurenine formation incubated for 48 hrs using L-tryptophan as substrate; type: cell-based
T1 sequence (P14902 whole entry): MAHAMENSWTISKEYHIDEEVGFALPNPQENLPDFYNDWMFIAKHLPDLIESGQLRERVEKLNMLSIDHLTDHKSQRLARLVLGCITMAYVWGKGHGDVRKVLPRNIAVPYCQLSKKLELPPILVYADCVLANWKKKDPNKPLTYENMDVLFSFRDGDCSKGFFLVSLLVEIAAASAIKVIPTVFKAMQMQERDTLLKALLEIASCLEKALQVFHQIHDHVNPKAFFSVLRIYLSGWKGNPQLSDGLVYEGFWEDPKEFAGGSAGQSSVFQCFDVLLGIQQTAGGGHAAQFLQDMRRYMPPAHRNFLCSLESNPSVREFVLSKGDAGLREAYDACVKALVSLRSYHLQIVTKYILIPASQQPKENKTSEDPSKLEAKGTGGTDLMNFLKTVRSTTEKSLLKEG

[5] = target: T1, Indoleamine 2,3-dioxygenase 1; experiment: Inhibition of recombinant human IDO1 expressed in Escherichia coli assessed as reduction in formation of kynurenine using L-tryptophan as substrate by methylene blue staining based assay
[6] = target: T1, Indoleamine 2,3-dioxygenase 1; experiment: Inhibition of IDO1 (unknown origin)
[7] = target: T1, Indoleamine 2,3-dioxygenase 1; experiment: Inhibition of recombinant human N-terminal His-tagged IDO1 expressed in Escherichia coli using L-tryptophan as substrate incubated for 60 mins by HPLC analysis
[8] = target: T1, Indoleamine 2,3-dioxygenase 1; experiment: Inhibition of IDO1 in LPS-induced human THP1 cells
[9] = target: T1, Indoleamine 2,3-dioxygenase 1; experiment: Inhibition of IDO1 in IFNgamma-indced human HeLa cells incubated for 48 hrs using L-tryptophan as substrate by colorimetric analysis; type: cell-based
[10] = target: T1, Indoleamine 2,3-dioxygenase 1; experiment: Inhibition of recombinant human IDO1 using L-tryptophan as substrate preincubated for 15 mins followed by substrate addition by methylene blue staining based spectrometric method
[11] = system: Jurkat; experiment: Cytotoxicity against human Jurkat cells assessed as growth inhibition after 72 hrs by MTT assay; type: functional
[12] = system: A549; experiment: Cytotoxicity against human A549 cells assessed as growth inhibition after 72 hrs by MTT assay; type: functional; settings: A549, 72 h
[13] = target: T2, Indoleamine 2,3-dioxygenase 1 (Mus musculus, UniProt P28776); experiment: Inhibition of mouse IDO1 expressed in Escherichia coli Rosetta (DE3) cells
T2 sequence (P28776 whole entry): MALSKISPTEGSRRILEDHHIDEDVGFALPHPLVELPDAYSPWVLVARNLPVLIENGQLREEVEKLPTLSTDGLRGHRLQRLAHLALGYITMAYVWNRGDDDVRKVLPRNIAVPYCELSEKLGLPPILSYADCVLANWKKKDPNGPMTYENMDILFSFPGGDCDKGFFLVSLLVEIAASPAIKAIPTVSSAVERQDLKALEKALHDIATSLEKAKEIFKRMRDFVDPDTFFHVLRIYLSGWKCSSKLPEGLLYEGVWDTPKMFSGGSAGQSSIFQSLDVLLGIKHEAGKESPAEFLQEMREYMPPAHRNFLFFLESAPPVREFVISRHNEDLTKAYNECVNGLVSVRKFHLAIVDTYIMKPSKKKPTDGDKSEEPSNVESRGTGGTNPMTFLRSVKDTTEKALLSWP

[14] = target: T1, Indoleamine 2,3-dioxygenase 1; experiment: Inhibition of recombinant human IDO1 expressed in Escherichia coli assessed as reduction in formation of kynurenine using L-tryptophan as substrate measured after 30 mins
[15] = target: T1, Indoleamine 2,3-dioxygenase 1; experiment: Inhibition of human IDO1 expressed in COS1 cells assessed as reduction in N-formyl-kynurenine level incubated for 16 hrs; type: cell-based
[16] = target: T2, Indoleamine 2,3-dioxygenase 1; experiment: Inhibition of mouse IDO1 expressed in COS1 cells assessed as reduction in N-formyl-kynurenine level incubated for 16 hrs; type: cell-based
[17] = target: T1, Indoleamine 2,3-dioxygenase 1; experiment: Inhibition of recombinant human His6-tagged IDO1 expressed in Escherichia coli BL21DE3pLysS cells assessed as reduction in N-formyl-kynurenine level using L-tryptophan as substrate incubated for 60 mins
[18] = target: T1, Indoleamine 2,3-dioxygenase 1; experiment: Inhibition of recombinant human His6-tagged IDO1 using L-tryptophan as substrate preincubated for 10 mins and measured after 30 mins
[19] = Tmax in human cancer patient at 2000 mg bid for 28 days by LC-MS method; type: ADME; settings: in vivo
[20] = Half life in human cancer patient at 2000 mg bid for 28 days by LC-MS method; type: ADME; settings: in vivo
[21] = Antitumour activity in mouse B16 cells pretreated with compound followed by tumour implantation assessed as reduction in tumour size after 4 days relative to control; set-up: scale not given: the % may be the effect or the level left
[22] = target: T1, Indoleamine 2,3-dioxygenase 1; experiment: Inhibition of recombinant human IDO1 expressed in COS1 cells by colorimetric method; type: cell-based

Structure (SMILES): NOCc1cccc(Cl)c1
- IC50 [1]: 0.109 µM

Structure (SMILES): C[C@@H](C(=O)Nc1ccc(Cl)cc1)[C@H]1CC[C@@H](c2ccnc3ccc(F)cc32)CC1
- inhibition (INH) [2]: >60%
- inhibition (INH) [3]: >45%

Structure (SMILES): C[C@@]12CC[C@H](O)CC1=C(O)C(=O)c1cc3c(cc12)C(=O)C1=C(C3=O)S(=O)(=O)CCN1
- IC50 [5]: 4 µM

Structure (SMILES): COc1cc(OC(=O)c2c(C)c(O)c(OC(=O)c3c(C)cc(O)c(C)c3O)c(C)c2OC)c(C)c(C)c1C(=O)O
- IC50 [6]: 14.5 µM

Structure (SMILES): CC1(C)CCC[C@]2(C)[C@H]3CCC(C=O)C[C@H](O)[C@]3(C=O)CC[C@@H]12 (some centres not stated)
- IC50 [7]: 7.7 µM
- IC50 [8]: 0.045 µM

Structure (SMILES): COC1=CC(=O)c2c(oc(C)c2CO)C1=O
- IC50 [14]: 0.24 µM

Structure (SMILES): COc1nsc2c1C(=O)c1c(O)cccc1C2=O
- IC50 [18]: 0.0803 µM

Structure (SMILES): O[C@H](C[C@H]1c2c(F)cccc2-c2cncn21)[C@H]1CC[C@H](O)CC1 [NAVOXIMOD]
- Activity [21]: 95%

The next lines start with results.

- IC50 [4]: 0.067 µM
Structure (SMILES): Clc1ccc(Nc2cn[nH]n2)cc1

- IC50 [9]: 18 µM
- IC50 [10]: 18 µM
Structure (SMILES): CCOc1cc(C(=O)NC(=S)Nc2c(O)ccc3ccccc23)cc(OCC)c1OCC

- IC50 [13]: 0.164 µM
Structure (SMILES): Nc1ccc2cc3cccc[n+]3cc2c1
- GI50 [11]: 62 µM
- GI50 [12]: 86 µM

- EC50 [15]: 24 µM
- EC50 [16]: 26.1 µM
- Ki [17]: 24.5 µM
Structure (SMILES): CSC(=S)NCc1c[nH]c2ccc(Br)cc12

- Tmax [19]: 2.9 h
- half-life [20]: 10.5 h
Structure (SMILES): Cn1cc(C[C@H](N)C(=O)O)c2ccccc21 (racemic) [(L)-1-METHYLTRYPTOPHAN]

- EC50 [22]: 12.8 µM
Structure (SMILES): CN1C(=O)C(Cc2c[nH]c3ccccc23)NC1=S (configuration not stated) [NECROSTATIN]
